{
  "source": "patent US20130137116A1",
  "about": "“METHOD AND KIT FOR DETECTING THE EARLY ONSET OF RENAL TUBULAR CELL INJURY” (priority 2003, published 2013)",
  "key": {"male Swiss-Webster mice": {"system": "male Swiss-Webster mice", "details": "larger dose (20 μg/kg as printed), previously shown; cited from earlier work"}, "rat": {"system": "rat", "details": "after the initial insult; cited from earlier work"}, "[1]": {"system": "Human renal proximal tubular epithelial cells (RPTEC)", "assay": "Mild ATP depletion of cultured cells (in vitro ischemia) with antimycin A", "assay_type": "cell-based", "details": "1 μm antimycin; for ATP level (partial ATP depletion): mean+/-SD from four experiments", "protocol": "Human renal proximal tubular epithelial cells (RPTEC) were obtained from Clonetics (San Diego, Calif.). Cells were grown in Renal Epithelial Cell Basal Medium supplemented with REGM complex ([…] hydrocortisone, 10 pg/ml hEGF, 0.5 μg/ml epinephrine, 6.5 pg/ml triiodothyronine, 10 μg/ml transferrin, 5 μg/ml insulin, 1 μg/ml gentamicin sulfate, and 2% FBS), as recommended by the manufacturer.\nWe modified previously described protocols of in vitro ischemia by ATP depletion with inhibitors of oxidative phosphorylation (8, 9). On the second day post-confluence, RPTEC cells were incubated with 1 μm antimycin A (Sigma) for varying periods of time up to 6 h. […] ATP levels were monitored using a luciferase-based assay kit (Sigma), and expressed as a percentage of control values. Cells were harvested at various time points of ATP depletion, and analyzed for NGAL mRNA expression by RT-PCR and NGAL protein expression by Western analysis. The secretion of NGAL into the culture medium was also monitored.\nIn order to confirm the origin of NGAL from ischemic proximal tubule cells, we modified previously described protocols of in vitro ischemia by ATP depletion in cultured human proximal tubule cells (RPTEC). […] NGAL mRNA was just detectable in resting cells."}},
  "data": [
    {"compound": "N.N.[Cl][Pt][Cl]", "note": "[cisplatin]", "values": [
      {"measurement": "Time to tubule cell necrosis and apoptosis, and impaired renal function", "setting": "male Swiss-Webster mice", "value": "3 to 4", "unit": "days"},
      {"measurement": "Time at which KIM-1 is qualitatively detectable", "setting": "rat", "value": "24 to 48", "unit": "h"}
    ]},
    {"compound": "antimycin A", "values": [
      {"measurement": "ATP level (partial ATP depletion)", "setting": "[1]; by 6 h", "value": "about 75±3 % of control"},
      {"measurement": "Morphological consequences of mild ATP depletion", "setting": "[1]; up to 6 h", "value": "No morphological consequences"},
      {"measurement": "ATP level (partial ATP depletion)", "setting": "[1]; within 1 h", "value": "about 83±3 % of control"},
      {"measurement": "NGAL mRNA induction by RT-PCR", "setting": "[1]; following partial ATP depletion", "value": "rapid and duration-dependent induction"}
    ]}
  ]
}
